pIC50: −log10 of the molar value. Where a name gives a salt, the structure may show the parent alone. Read-outs that look alike come from different tables or passages of the source. Blank lines part the entries; values can stand above or below the molecule they belong to.
Key:
[1] = target: T1, 5-hydroxytryptamine (HT1A) receptor (Bos taurus, UniProt F6Q2H9); assay: Inhibition of 3H-8-OH-DPAT binding in a bovine brain homogenate (5HT1A binding)
T1 construct: from tissue; host or cells: bovine brain homogenate
T1 sequence (F6Q2H9 1-422): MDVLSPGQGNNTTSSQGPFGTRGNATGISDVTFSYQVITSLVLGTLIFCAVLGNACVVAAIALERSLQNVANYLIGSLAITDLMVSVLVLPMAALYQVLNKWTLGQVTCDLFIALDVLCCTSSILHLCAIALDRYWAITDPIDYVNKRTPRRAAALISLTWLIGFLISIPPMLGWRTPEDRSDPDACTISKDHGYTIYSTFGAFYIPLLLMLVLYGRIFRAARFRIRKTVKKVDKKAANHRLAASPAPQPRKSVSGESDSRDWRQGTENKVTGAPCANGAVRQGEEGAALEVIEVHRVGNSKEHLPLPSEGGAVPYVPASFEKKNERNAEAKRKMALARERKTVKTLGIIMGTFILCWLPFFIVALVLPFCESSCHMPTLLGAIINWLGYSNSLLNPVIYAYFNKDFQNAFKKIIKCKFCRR
Excerpt: Binding: Inhibition of 3H-8-OH-DPAT binding in a bovine brain homogenate. Potency is given as nanomole (nM) dose required to inhibit 50% of DPAT binding (IC50). This test measures ability to bind to 5-hydroxytryptamine (HT1A ) receptor.

dopamine D2 receptors = dopamine D2 receptors (Rattus norvegicus, UniProt P61169); assay: biochemical; assay type: binding
Sequence of dopamine D2 receptors (P61169 whole entry): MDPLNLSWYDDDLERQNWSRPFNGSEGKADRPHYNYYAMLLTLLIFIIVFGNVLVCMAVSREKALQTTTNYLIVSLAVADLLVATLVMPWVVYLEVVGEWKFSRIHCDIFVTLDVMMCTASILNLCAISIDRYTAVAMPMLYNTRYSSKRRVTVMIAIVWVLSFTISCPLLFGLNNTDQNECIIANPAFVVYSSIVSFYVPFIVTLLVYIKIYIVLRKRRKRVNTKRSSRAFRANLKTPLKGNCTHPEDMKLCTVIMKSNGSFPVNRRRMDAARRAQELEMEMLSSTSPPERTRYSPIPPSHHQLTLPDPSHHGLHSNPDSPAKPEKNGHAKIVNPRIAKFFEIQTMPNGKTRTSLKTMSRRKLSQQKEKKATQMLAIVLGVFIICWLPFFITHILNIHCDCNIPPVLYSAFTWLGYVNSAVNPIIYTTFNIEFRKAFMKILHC
Excerpt: For Dopamine (D2): Inhibition of 3H-raclopride binding in rat striata homogenate. […] This test measures the ability to bind to dopamine D2 receptors.

[2] = Hypothermia in mice after subcutaneous injection; assay type: in vivo; conditions: 20 min, dose required to depress temperature (2° C.) in two of four mice, Spearman-Karber; for ED50: Mus musculus, sc
Experimental: Hypothermia: Starting with a dose of 30 mg/kg, four mice are injected subcutaneously with test compound. Twenty minutes later, the number of animals whose body temperature has decreased by 2° C. or more are counted. […] The time for last statistically significant drug affect on mean body temperature is indicated in minutes. […] Potency is given as mg/kg ED50 (dose required to depress temperature in two of four mice) as measured by Spearman-Karber statistics.

[3] = 5HT1A Binding IC50, 3H-8-OH-DPAT
[4] = read-out: Hypothermia ED50, mice, subcutaneous
[5] = 3H-8-OH-DPAT, read-out: 5HT1A Binding IC50
[6] = 3H-raclopride, rat striata homogenate, read-out: Dopamine D2-Receptor Binding IC50
[7] = mice, subcutaneous, read-out: Hypothermia ED50

SMILES: CCCCOC(=O)c1cc2c3c(ccc2[nH]1)OCC(CN1CCC2(CC1)C(=O)NCN2c1ccccc1)O3 (stereo not shown) [XIe, 7H-1,4-Dioxino(2,3-e)indole-8-carboxylic acid, 2,3-dihydro-2-((4-oxo-1-phenyl-1,3,8-triazaspiro(4.5)dec-8-yl)methyl)-, butyl ester]
pIC50 [1, 3]: 7.87

SMILES: C=CCN1CN(c2ccccc2)C2(CCN(CC3COc4ccc5[nH]c(C(=O)OC)cc5c4O3)CC2)C1=O (stereo not shown) [XIp, 7H-1,4-Dioxino(2,3-e)indole-8-carboxylic acid, 2,3-dihydro-2-((4-oxo-1-phenyl-3-(2-propenyl)-1,3,8-triazaspiro(4.5)dec-8-yl)methyl)-, methyl ester]
pIC50 [1, 3]: 7.96

SMILES: O=C1NCN(c2ccccc2)C12CCN(CC1COc3ccc4[nH]c(CO)cc4c3O1)CC2 (stereo not shown) [XIl, 1,3,8-Triazaspiro(4.5)decan-4-one, 8-((2,3-dihydro-8-(hydroxymethyl)-7H-1,4-dioxino(2,3-e)indol-2-yl)methyl)-1-phenyl-]
pIC50 [1, 3]: 8.64

SMILES: N#Cc1cc2c3c(ccc2[nH]1)OCC(CN1CCC2(CC1)C(=O)NCN2c1ccccc1)O3 (stereo not shown) [XId, 7H-1,4-Dioxino(2,3-e)indole-8-carbonitrile, 2,3-dihydro-2-((4-oxo-1-phenyl-1,3,8-triazaspiro(4.5)dec-8-yl)methyl)-]
pIC50 [1, 3]: 9.77 | pIC50 (dopamine D2 receptors): 8.82 | ED50 [2, 4]: 0.01 mg/kg

SMILES: O=C1NCN(c2ccccc2)C12CCN(CC1COc3ccc4[nH]ccc4c3O1)CC2 (stereo not shown) [XIm, 1,3,8-Triazaspiro(4.5)decan-4-one, 8-((2,3-dihydro-7H-1,4-dioxino(2,3-e)indol-2-yl)methyl)-1-phenyl]
pIC50 [1, 3]: 9.00 | pIC50 (dopamine D2 receptors): 9.89

SMILES: O=C(O)c1cc2c3c(ccc2[nH]1)OCC(CN1CCC2(CC1)C(=O)NCN2c1ccccc1)O3 (stereo not shown) [b']
pIC50 [1, 3]: 7.61 | pIC50 (dopamine D2 receptors): 7.28 | Hypothermia ED50 ([2]; mice, subcutaneous): 30.0 mg/kg

pIC50 [1, 5]: 8.40 | pIC50 (dopamine D2 receptors; [6]): 7.26
SMILES: COC(=O)c1cc2c3c(ccc2[nH]1)OCC(CNCCCc1ccccc1)O3 (stereo not shown) [XIj, 7H-1,4-Dioxino(2,3-e)indole-8-carboxylic acid, 2,3-dihydro-2-((3-phenylpropyl)amino)methyl)-, methyl ester, monohydrochloride]
ED50 [2, 7]: 1.3 mg/kg

SMILES: C=CCN1CN(c2ccccc2)C2(CCN(CC3COc4ccc5c(cc(C(=O)OC)n5CC=C)c4O3)CC2)C1=O (stereo not shown) [XIo, 7H-1,4-Dioxino(2,3-e)indole-8-carboxylic acid, 2,3-dihydro-2-((4-oxo-1-phenyl-3-(2-propenyl)-1,3,8-triazaspiro(4.5)dec-8-yl)methyl)-7-(2-propenyl)-, methyl ester]
pIC50 [1, 3]: 6.55 | pIC50 (dopamine D2 receptors): 7.01

SMILES: COC(=O)c1cc2c3c(ccc2[nH]1)OCC(CN1CCC(Nc2ccccc2)(C(N)=O)CC1)O3 (stereo not shown) [XIi, 7H-1,4-Dioxino(2,3-e)indole-8-carboxylic acid, 2-((4(aminocarbonyl)-4-(phenylamino)-1-piperidinyl)methyl)-2,3-dihydro-, methyl ester]
pIC50 [1, 3]: 7.10

SMILES: COC(=O)C1Cc2c(ccc3c2OC(CN2CCC4(CC2)C(=O)NCN4c2ccccc2)CO3)N1 (stereo not shown) [a', 7H-1,4-Dioxino(2,3-e)indole-8-carboxylic acid 2,3,8,9-tetrahydro-2-((4-oxo-1-phenyl-1,3,8-triazaspiro(4.5)dec-8-yl)methyl)-, methyl ester]
ED50 [2, 4]: 17.3 mg/kg

SMILES: COC(=O)c1cc2c3c(ccc2[nH]1)OCC(CN1CCC2(CC1)C(=O)NCN2c1ccccc1)O3 (stereo not shown) [XIa, 2,3-dihydro-2-((4-oxo-1-phenyl-1,3,8-triazaspiro(4.5)-dec-8-yl)methyl)-7H-1,4-dioxino(2,3-e)indol-8-methyl ester]
pIC50 [1, 3]: 9.33 | ED50 [2, 4]: 30 mg/kg

SMILES: O=C(OCc1ccccc1)c1cc2c3c(ccc2[nH]1)OCC(CN1CCC2(CC1)C(=O)NCN2c1ccccc1)O3 (stereo not shown) [XIf, 7H-1,4-Dioxino(2,3-e)indole-8-carboxylic acid, 2,3-dihydro-2-((4-oxo-1-phenyl-1,3,8-triazaspiro(4.5)dec-8-yl)methyl)-, phenylmethyl ester]
pIC50 [1, 3]: 8.08 | pIC50 (dopamine D2 receptors; [6]): 6.72 | ED50 [2, 4]: 17.3 mg/kg

SMILES: COC(=O)c1cc2c3c(ccc2[nH]1)OCC(CN1CCC(n2c(=O)[nH]c4ccccc42)CC1)O3 (stereo not shown) [XIg, 7H-1,4-Dioxino(2,3-e)indole-8-carboxylic acid, 2-((4-(2,3-dihydro-2-oxo-1H-benzimidazol-1-yl)-1-piperidinyl)methyl)-2,3-dihydro-, methyl ester, monohydrochloride]
pIC50 [1, 3]: 8.43

SMILES: C=CCn1c(C(=O)OC)cc2c3c(ccc21)OCC(CN1CCC2(CC1)C(=O)NCN2c1ccccc1)O3 (stereo not shown) [XIn, 7H-1,4-Dioxino(2,3-e)indole-8-carboxylic acid, 2,3-dihydro-2-((4-oxo-1-phenyl-1,3,8-triazaspiro(4.5)dec-8-yl)methyl)-7-(2-propenyl)-, methyl ester]
pIC50 [1, 3]: 6.57

pIC50 [1, 5]: 8.02 | pIC50 (dopamine D2 receptors; [6]): 6.83
SMILES: CCOC(=O)C1CCN(CC2COc3ccc4[nH]c(C(=O)OC)cc4c3O2)CC1 (stereo not shown) [XIh, 7H-1,4-Dioxino(2,3-e)indole-8-carboxylic acid, 2-((4-(ethoxycarbonyl-1-piperidinyl)methyl)-2,3-dihydro-, methyl ester, monohydrochloride]
ED50 [2, 7]: > 30 mg/kg

SMILES: O=C(O)c1cc2c3c(ccc2[nH]1)OCC(CN1CCC2(CC1)C(=O)NCN2c1ccccc1)O3 (stereo not shown) [XIb]
pIC50 [1, 3]: 7.44 | ED50 [2, 4]: 17.3 mg/kg

pIC50 [1, 5]: 7.59 | pIC50 (dopamine D2 receptors; [6]): 6.46
SMILES: Cl.O=C(NCCCc1ccccc1)c1cc2c3c(ccc2[nH]1)OCC(CNCCCc1ccccc1)O3 (stereo not shown) [XIk, 7H-1,4-Dioxino(2,3-e)indole-8-carboxamide, 2,3-dihydro-N-(3-phenylpropyl)-2-(((3-phenylpropyl)amino)methyl)-, monohydrochloride]
ED50 [2, 7]: > 30 mg/kg

SMILES: NC(=O)c1cc2c3c(ccc2[nH]1)OCC(CN1CCC2(CC1)C(=O)NCN2c1ccccc1)O3 (stereo not shown) [XIc, 7H-1,4-Dioxino(2,3-e)indole-8-carboxamide, 2,3-dihydro-2-((4-oxo-1-phenyl-1,3,8-triazaspiro(4.5)dec-8-yl)methyl)-]
pIC50 [1, 3]: 9.54
